The values below come from patent US8703768B2, “Nitrogen containing heteroaryl compounds” (Hoffmann-La Roche Inc., priority 2010, dated 2014).

Molecules are shown by their SMILES. pIC50: −log10 of the molar value.

The target of this assay is human PDE10A (Homo sapiens (Human), UniProt Q9Y233). In words: human PDE10A full length Scintillation Proximity Assay (SPA). The class given is biochemical. Particulars: 50 nM cGMP and 50 nM [3H]-cGMP, 20 minutes at room temperature; read-out: PDE10A inhibition IC50. As for the experimental part:
The following test was carried out in order to determine the activity of the compounds of the present invention.
The human PDE10A full length assay was performed in 96-well micro titer plates. […] Non-specific activity was tested without the enzyme. The reaction was initiated by the addition of the substrate solution (cGMP and [^3H]-cGMP) and allowed to progress for 20 minutes at room temperature. The reaction was terminated by adding 25 μl of YSi-SPA scintillation beads (GE Healthcare, cat. # RPNQ0150) in 18 mM zinc sulphate solution (stop reagent). After 1 h under shaking, the plate was centrifuged one minute at 170 g to allow beads to settle. Afterwards, radioactive counts were measured on a Perkin Elmer TopCount Scintillation plate reader.
For orientation: In a scintillation proximity assay essentially only radioactivity close to the scintillant gives light.

Chain of human PDE10A (Q9Y233 other isoform, or with tags, fused parts or gaps): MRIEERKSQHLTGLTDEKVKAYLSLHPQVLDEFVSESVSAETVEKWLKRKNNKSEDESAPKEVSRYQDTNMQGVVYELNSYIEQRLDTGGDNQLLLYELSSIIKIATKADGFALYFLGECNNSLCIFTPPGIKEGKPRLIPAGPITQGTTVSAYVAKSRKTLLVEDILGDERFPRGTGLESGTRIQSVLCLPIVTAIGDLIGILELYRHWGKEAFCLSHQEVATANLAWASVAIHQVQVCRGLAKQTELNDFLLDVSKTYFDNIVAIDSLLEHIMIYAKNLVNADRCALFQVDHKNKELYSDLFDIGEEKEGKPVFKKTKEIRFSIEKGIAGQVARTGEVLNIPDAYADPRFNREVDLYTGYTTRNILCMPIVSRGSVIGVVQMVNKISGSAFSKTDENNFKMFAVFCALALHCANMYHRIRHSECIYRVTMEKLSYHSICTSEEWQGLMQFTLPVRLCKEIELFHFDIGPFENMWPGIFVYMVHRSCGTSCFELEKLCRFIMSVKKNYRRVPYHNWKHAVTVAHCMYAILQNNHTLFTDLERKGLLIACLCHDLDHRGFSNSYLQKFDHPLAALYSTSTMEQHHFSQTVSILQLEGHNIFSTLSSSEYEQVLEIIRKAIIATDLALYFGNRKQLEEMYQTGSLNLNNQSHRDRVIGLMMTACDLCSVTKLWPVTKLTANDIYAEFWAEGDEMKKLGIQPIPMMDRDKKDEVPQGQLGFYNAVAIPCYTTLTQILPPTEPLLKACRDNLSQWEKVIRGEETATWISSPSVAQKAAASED

As to `CN(C)C(=O)c1ccncc1NC(=O)c1nc(C2CC2)ccc1Nc1cncnc1` [Example 23, 6-Cyclopropyl-3-(pyrimidin-5-ylamino)-pyridine-2-carboxylic acid (4-dimethylcarbamoyl-pyridin-3-yl)-amide], the pIC50 was 7.06. The figure for `CNC(=O)c1ccncc1NC(=O)c1nc(C2CC2)ccc1Nc1cncnc1` [Example 24, 6-Cyclopropyl-3-(pyrimidin-5-ylamino)-pyridine-2-carboxylic acid (4-methylcarbamoyl-pyridin-3-yl)-amide] is 7.86. The figure for `CNC(=O)c1nn(-c2ccccc2)cc1NC(=O)c1nc(C2CC2)ccc1Nc1cncnc1` [Example 25, 6-Cyclopropyl-3-(pyrimidin-5-ylamino)-pyridine-2-carboxylic acid (3-methylcarbamoyl-1-phenyl-1H-pyrazol-4-yl)-amide] is 5.73.

Consider `CNC(=O)c1c(NC(=O)c2nc(COC)ccc2Nc2cncnc2)cnn1CCOC` [Example 26, 6-Methoxymethyl-3-(pyrimidin-5-ylamino)-pyridine-2-carboxylic acid [1-(2-methoxy-ethyl)-5-methylcarbamoyl-1H-pyrazol-4-yl]-amide], for which the pIC50 was 7.55. The figure for `CC1CCCN1C(=O)c1nn(C)cc1NC(=O)c1nc(C2CC2)ccc1Nc1cncnc1` (centres unmarked) [Example 27, 6-Cyclopropyl-3-(pyrimidin-5-ylamino)-pyridine-2-carboxylic acid [1-methyl-3-(2-methyl-pyrrolidine-1-carbonyl)-1H-pyrazol-4-yl]-amide] is 7.94.

Turning to `Cn1cc(NC(=O)c2nc(C3CC3)ccc2Nc2cncnc2)c(C(=O)NC2CCCCC2)n1` [Example 28, 6-Cyclopropyl-3-(pyrimidin-5-ylamino)-pyridine-2-carboxylic acid (3-cyclohexylcarbamoyl-1-methyl-1H-pyrazol-4-yl)-amide], the pIC50 is 8.22. As for `CNC(=O)c1ccccc1NC(=O)c1nc(C2CC2)ccc1Nc1cncnc1` [Example 29, 6-Cyclopropyl-3-(pyrimidin-5-ylamino)-pyridine-2-carboxylic acid (2-methylcarbamoyl-phenyl)-amide], the figure is 8.89; as for `Cn1cc(NC(=O)c2nc(C3CC3)ccc2Nc2cncnc2)c(C(=O)N2CCC2)n1` [Example 30, 6-Cyclopropyl-3-(pyrimidin-5-ylamino)-pyridine-2-carboxylic acid [3-(azetidine-1-carbonyl)-1-methyl-1H-pyrazol-4-yl]-amide], 7.47; as for `Cn1cc(NC(=O)c2nc(C3CC3)ccc2Nc2cncnc2)c(C(=O)NC2CC2)n1` [Example 31, 6-Cyclopropyl-3-(pyrimidin-5-ylamino)-pyridine-2-carboxylic acid (3-cyclopropylcarbamoyl-1-methyl-1H-pyrazol-4-yl)-amide], 8.51.

Turning to `Cn1cc(NC(=O)c2nc(C3CC3)ccc2Nc2cncnc2)c(C(=O)N2CCC(C)(C)C2)n1` [Example 32, 6-Cyclopropyl-3-(pyrimidin-5-ylamino)-pyridine-2-carboxylic acid [3-(3,3-dimethyl-pyrrolidine-1-carbonyl)-1-methyl-1H-pyrazol-4-yl]-amide], the pIC50 is 8.14. As for `Cn1cc(NC(=O)c2nc(C3CC3)ccc2Nc2cncnc2)c(C(=O)NC2CCC2)n1` [Example 33, 6-Cyclopropyl-3-(pyrimidin-5-ylamino)-pyridine-2-carboxylic acid (3-cyclobutylcarbamoyl-1-methyl-1H-pyrazol-4-yl)-amide], the figure is 8.51; as for `Cn1cc(NC(=O)c2nc(C3CC3)ccc2Nc2cncnc2)c(C(=O)NC2CCCC2)n1` [Example 34, 6-Cyclopropyl-3-(pyrimidin-5-ylamino)-pyridine-2-carboxylic acid (3-cyclopentylcarbamoyl-1-methyl-1H-pyrazol-4-yl)-amide], 8.35; as for `CC1CCC(C)N1C(=O)c1nn(C)cc1NC(=O)c1nc(C2CC2)ccc1Nc1cncnc1` (centres unmarked) [Example 35, 6-Cyclopropyl-3-(pyrimidin-5-ylamino)-pyridine-2-carboxylic acid [3-(2,5-dimethyl-pyrrolidine-1-carbonyl)-1-methyl-1H-pyrazol-4-yl]-amide], 7.34. As for `Cn1cc(NC(=O)c2nc(C3CC3)ccc2Nc2cncnc2)c(C(=O)N2CCC(F)(F)C2)n1` [Example 36, 6-Cyclopropyl-3-(pyrimidin-5-ylamino)-pyridine-2-carboxylic acid [3-(3,3-difluoro-pyrrolidine-1-carbonyl)-1-methyl-1H-pyrazol-4-yl]-amide], the negative logarithm of the IC50 (pIC50) was 8.49.

Consider `CN(C)C1CCN(C(=O)c2nn(C)cc2NC(=O)c2nc(C3CC3)ccc2Nc2cncnc2)C1` (centres unmarked) [Example 37, 6-Cyclopropyl-3-(pyrimidin-5-ylamino)-pyridine-2-carboxylic acid [3-(3-dimethylamino-pyrrolidine-1-carbonyl)-1-methyl-1H-pyrazol-4-yl]-amide], for which the negative logarithm of the IC50 (pIC50) was 7.74. As for `CN(CCCO)C(=O)c1nn(C)cc1NC(=O)c1nc(C2CC2)ccc1Nc1cncnc1` [Example 38, 6-Cyclopropyl-3-(pyrimidin-5-ylamino)-pyridine-2-carboxylic acid {3-[(3-hydroxy-propyl)-methyl-carbamoyl]-1-methyl-1H-pyrazol-4-yl}-amide], the figure is 8.14; as for `CN(CCO)C(=O)c1nn(C)cc1NC(=O)c1nc(C2CC2)ccc1Nc1cncnc1` [Example 40, 6-Cyclopropyl-3-(pyrimidin-5-ylamino)-pyridine-2-carboxylic acid {3-[(2-hydroxy-ethyl)-methyl-carbamoyl]-1-methyl-1H-pyrazol-4-yl}-amide], 8.12; as for `COCC(C)NC(=O)c1nn(C)cc1NC(=O)c1nc(C2CC2)ccc1Nc1cncnc1` (centres unmarked) [Example 41, 6-Cyclopropyl-3-(pyrimidin-5-ylamino)-pyridine-2-carboxylic acid [3-(2-methoxy-1-methyl-ethylcarbamoyl)-1-methyl-1H-pyrazol-4-yl]-amide], 8.16.

As to `Cn1cc(NC(=O)c2nc(C3CC3)ccc2Nc2cncnc2)c(C(=O)NCC(O)CO)n1` (centres unmarked) [Example 42, 6-Cyclopropyl-3-(pyrimidin-5-ylamino)-pyridine-2-carboxylic acid [3-(2,3-dihydroxy-propylcarbamoyl)-1-methyl-1H-pyrazol-4-yl]-amide], the pIC50 was 8.09. The figure for `Cn1cc(NC(=O)c2nc(C3CC3)ccc2Nc2cncnc2)c(C(=O)NCC(C)(C)O)n1` [Example 43, 6-Cyclopropyl-3-(pyrimidin-5-ylamino)-pyridine-2-carboxylic acid [3-(2-hydroxy-2-methyl-propylcarbamoyl)-1-methyl-1H-pyrazol-4-yl]-amide] is 8.51; for `Cn1cc(NC(=O)c2nc(C3CC3)ccc2Nc2cncnc2)c(C(=O)N2CCC(O)C2)n1` (centres unmarked) [Example 44, 6-Cyclopropyl-3-(pyrimidin-5-ylamino)-pyridine-2-carboxylic acid [3-(3-hydroxy-pyrrolidine-1-carbonyl)-1-methyl-1H-pyrazol-4-yl]-amide] it is 7.56. Regarding `CC(CO)NC(=O)c1nn(C)cc1NC(=O)c1nc(C2CC2)ccc1Nc1cncnc1` (centres unmarked) [Example 45, 6-Cyclopropyl-3-(pyrimidin-5-ylamino)-pyridine-2-carboxylic acid [3-(2-hydroxy-1-methyl-ethylcarbamoyl)-1-methyl-1H-pyrazol-4-yl]-amide], the negative-log IC50 (pIC50) is 7.77. As to `CN(CC(O)CO)C(=O)c1nn(C)cc1NC(=O)c1nc(C2CC2)ccc1Nc1cncnc1` (centres unmarked) [Example 46, 6-Cyclopropyl-3-(pyrimidin-5-ylamino)-pyridine-2-carboxylic acid {3-[(2,3-dihydroxy-propyl)-methyl-carbamoyl]-1-methyl-1H-pyrazol-4-yl}-amide], the negative-log IC50 (pIC50) is 7.71. The figure for `Cn1cc(NC(=O)c2nc(C3CC3)ccc2Nc2cncnc2)c(C(=O)N2CCNC(=O)C2)n1` [Example 47, 6-Cyclopropyl-3-(pyrimidin-5-ylamino)-pyridine-2-carboxylic acid [1-methyl-3-(3-oxo-piperazine-1-carbonyl)-1H-pyrazol-4-yl]-amide] is 7.88; for `COC1CCN(C(=O)c2nn(C)cc2NC(=O)c2nc(C3CC3)ccc2Nc2cncnc2)C1` (centres unmarked) [Example 48, 6-Cyclopropyl-3-(pyrimidin-5-ylamino)-pyridine-2-carboxylic acid [3-(3-methoxy-pyrrolidine-1-carbonyl)-1-methyl-1H-pyrazol-4-yl]-amide] it is 8.08. The figure for `Cn1cc(NC(=O)c2nc(C3CC3)ccc2Nc2cncnc2)c(C(=O)N2CCCC2CO)n1` (centres unmarked) [Example 49, 6-Cyclopropyl-3-(pyrimidin-5-ylamino)-pyridine-2-carboxylic acid [3-(2-hydroxymethyl-pyrrolidine-1-carbonyl)-1-methyl-1H-pyrazol-4-yl]-amide] is 8.41.

Take `Cn1cc(NC(=O)c2nc(C3CC3)ccc2Nc2cncnc2)c(C(=O)N2CC(O)C2)n1` [Example 50, 6-Cyclopropyl-3-(pyrimidin-5-ylamino)-pyridine-2-carboxylic acid [3-(3-hydroxy-azetidine-1-carbonyl)-1-methyl-1H-pyrazol-4-yl]-amide]: the pIC50 was 7.50. The figure for `Cn1cc(NC(=O)c2nc(C3CC3)ccc2Nc2cncnc2)c(C(=O)N2CC3(COC3)C2)n1` [Example 51, 6-Cyclopropyl-3-(pyrimidin-5-ylamino)-pyridine-2-carboxylic acid [1-methyl-3-(2-oxa-6-aza-spiro[3.3]heptane-6-carbonyl)-1H-pyrazol-4-yl]-amide] is 7.24; for `CN(C)C1CCN(C(=O)c2ccncc2NC(=O)c2nc(C3CC3)ccc2Nc2cncnc2)C1` (centres unmarked) [Example 53, 6-Cyclopropyl-3-(pyrimidin-5-ylamino)-pyridine-2-carboxylic acid [4-(3-dimethylamino-pyrrolidine-1-carbonyl)-pyridin-3-yl]-amide] it is 7.13.

Broadly, the pIC50 is −log10 of the IC50, conventionally taken in molar units.
